Measured values as given in ChEMBL document CHEMBL6127136, “Discovery of 1-(Phenylsulfonyl)-1,2,3,4-tetrahydroquinoline Derivative as Orally Bioavailable and Safe RORγt Inverse Agonists for Potential Treatment of Rheumatoid Arthritis” (J Med Chem, 2024).
Activity calls are given as the source filed them. No cut-off for these calls is given here.

Assays:
[1] = target: T1, Nuclear receptor ROR-gamma (Homo sapiens, UniProt P51449); experiment: Inverse agonist activity at N-terminal 6-His-tagged/APC-labeled human RORgammat LBD extracted from Escherichia coli assessed as inhibition of europium-labeled SRC-1 recruitment incubated for 3 hrs by TR-FRET analysis
T1 sequence (P51449 whole entry): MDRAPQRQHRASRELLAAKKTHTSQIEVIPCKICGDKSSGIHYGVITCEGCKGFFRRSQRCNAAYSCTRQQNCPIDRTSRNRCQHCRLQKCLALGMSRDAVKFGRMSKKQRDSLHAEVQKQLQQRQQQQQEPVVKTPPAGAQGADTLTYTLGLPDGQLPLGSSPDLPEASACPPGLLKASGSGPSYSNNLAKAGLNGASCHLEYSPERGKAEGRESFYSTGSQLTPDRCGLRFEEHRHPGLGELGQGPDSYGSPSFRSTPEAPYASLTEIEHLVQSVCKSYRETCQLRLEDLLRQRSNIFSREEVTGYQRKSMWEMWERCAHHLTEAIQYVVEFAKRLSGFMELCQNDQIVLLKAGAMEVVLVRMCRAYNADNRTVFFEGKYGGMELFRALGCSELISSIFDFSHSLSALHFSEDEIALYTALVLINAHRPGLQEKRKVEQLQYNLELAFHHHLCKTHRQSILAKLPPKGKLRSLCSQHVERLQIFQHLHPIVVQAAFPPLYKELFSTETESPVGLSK

[2] = target: T1, Nuclear receptor ROR-gamma; experiment: Inverse agonist activity at GAL4 DNA-binding domain fused RORgamma (unknown origin) transfected in HEK293T cells co-transfected with GAL4-promoter driven luciferase reporter gene assessed as inhibition of RORgammat transcription incubated for 18 to 20 hrs by plate reader analysis; format: cell-based
[3] = Half-life in male DBA/1 mouse at 5 mg/kg, iv measured after 24 hrs by HPLC analysis; format: ADME, organism-based; settings: in vivo
[4] = Tmax in male DBA/1 mouse at 5 mg/kg, iv measured after 24 hrs by HPLC analysis; format: ADME, organism-based; settings: in vivo
[5] = Cmax in male DBA/1 mouse at 5 mg/kg, iv measured after 24 hrs by HPLC analysis; format: ADME, organism-based; settings: in vivo
[6] = AUC (0 to t) in male DBA/1 mouse at 5 mg/kg, iv measured after 24 hrs by HPLC analysis; format: ADME, organism-based; settings: in vivo
[7] = AUC (0 to infinity) in male DBA/1 mouse at 5 mg/kg, iv measured after 24 hrs by HPLC analysis; format: ADME, organism-based; settings: in vivo
[8] = Clearance in male DBA/1 mouse at 5 mg/kg, iv measured after 24 hrs by HPLC analysis; format: ADME, organism-based; settings: in vivo
[9] = Half-life in male DBA/1 mouse at 20 mg/kg, po measured after 24 hrs by HPLC analysis; format: ADME, organism-based; settings: in vivo
[10] = Tmax in male DBA/1 mouse at 20 mg/kg, po measured after 24 hrs by HPLC analysis; format: ADME, organism-based; settings: in vivo
[11] = Cmax in male DBA/1 mouse at 20 mg/kg, po measured after 24 hrs by HPLC analysis; format: ADME, organism-based; settings: in vivo
[12] = AUC (0 to t) in male DBA/1 mouse at 20 mg/kg, po measured after 24 hrs by HPLC analysis; format: ADME, organism-based; settings: in vivo
[13] = AUC (0 to infinity) in male DBA/1 mouse at 20 mg/kg, po measured after 24 hrs by HPLC analysis; format: ADME, organism-based; settings: in vivo
[14] = Oral bioavailability in male DBA/1 mouse at 20 mg/kg measured after 24 hrs by HPLC analysis; format: ADME, organism-based; settings: in vivo
[15] = Toxicity in imiquimod-induced psoriasis-like skin inflammation Balb/c mouse model assessed as change in body weight at 10 mg/kg, IG preadministered with IMQ for 3 days followed by compound administration from day 4 and measured on day 14; format: organism-based; settings: in vivo, po, 264 h, time 11 day
Mus musculus [16] = experiment: Antiinflammatory activity against imiquimod-induced psoriasis-like skin inflammation in Balb/c mouse model assessed as reduction in mononuclear cell infiltration in skin at 10 mg/kg, IG preadministered with IMQ for 3 days followed by compound administration from day 4 and measured on day 14 by H and E staining based analysis; format: functional, organism-based; settings: time 11.0 day
Mus musculus [17] = experiment: Antiinflammatory activity against imiquimod-induced psoriasis-like skin inflammation in Balb/c mouse model assessed as reduction in inflammatory cell infiltration in skin at 10 mg/kg, IG preadministered with IMQ for 3 days followed by compound administration from day 4 and measured on day 14 by H and E staining based analysis; format: functional, organism-based; settings: time 11.0 day
Mus musculus [18] = experiment: Antiinflammatory activity against imiquimod-induced psoriasis-like skin inflammation in Balb/c mouse model assessed as attenuation of skin layer thickening at 10 mg/kg, IG preadministered with IMQ for 3 days followed by compound administration from day 4 and measured on day 14 by H and E staining based analysis; format: functional, organism-based; settings: time 11.0 day
Mus musculus [19] = experiment: Antiinflammatory activity against imiquimod-induced psoriasis-like skin inflammation in Balb/c mouse model assessed as decrease in dermal telangiectasia at 10 mg/kg, IG preadministered with IMQ for 3 days followed by compound administration from day 4 and measured on day 14 by H and E staining based analysis; format: functional, organism-based; settings: time 11.0 day
Mus musculus [20] = experiment: Antiinflammatory activity against imiquimod-induced psoriasis-like skin inflammation in Balb/c mouse model assessed as decrease in IL-17A expression in skin at 10 mg/kg, IG preadministered with IMQ for 3 days followed by compound administration from day 4 and measured on day 14 by immunohistochemical analysis; format: functional, organism-based; settings: time 11.0 day
Mus musculus [21] = experiment: Antiinflammatory activity against imiquimod-induced psoriasis-like skin inflammation in Balb/c mouse model assessed as decrease in IL-17F expression in skin at 10 mg/kg, IG preadministered with IMQ for 3 days followed by compound administration from day 4 and measured on day 14 by immunohistochemical analysis; format: functional, organism-based; settings: time 11.0 day
Mus musculus [22] = experiment: Antiinflammatory activity against imiquimod-induced psoriasis-like skin inflammation in Balb/c mouse model assessed as decrease in IL-23 expression in skin at 10 mg/kg, IG preadministered with IMQ for 3 days followed by compound administration from day 4 and measured on day 14 by immunohistochemical analysis; format: functional, organism-based; settings: time 11.0 day
[23] = Toxicity in chicken type II collagen-induced arthritis DBA/1 mouse model assessed as behavioral abnormalities at 20 mg/kg/day, po measured after 42 days; format: organism-based; settings: in vivo, 1008 h, time 42 day
[24] = Toxicity in chicken type II collagen-induced arthritis DBA/1 mouse model assessed as body weight loss at 20 mg/kg/day, po measured after 42 days; format: organism-based; settings: in vivo, 1008 h, time 42 day
Mus musculus [25] = experiment: Antiarthritic activity in chicken type II collagen-induced arthritis DBA/1 mouse model assessed as reduction in clinical score at 20 mg/kg/day, po measured after 42 days; format: functional, organism-based; settings: time 42.0 day
[26] = Toxicity in chicken type II collagen-induced arthritis DBA/1 mouse model assessed as increase in thymic cortex to medulla ratio at 20 mg/kg/day, po administered for 2 weeks by H and E staining based analysis; format: organism-based; settings: in vivo, 336 h
[27] = Toxicity in chicken type II collagen-induced arthritis DBA/1 mouse model assessed as signs of thymic enlargement at 20 mg/kg/day, po administered for 2 weeks by H and E staining based analysis; format: organism-based; settings: in vivo, 336 h
[28] = Toxicity in chicken type II collagen-induced arthritis DBA/1 mouse model assessed as signs of lymphoma at 20 mg/kg/day, po administered for 2 weeks by H and E staining based analysis; format: organism-based; settings: in vivo, 336 h
[29] = Toxicity in chicken type II collagen-induced arthritis DBA/1 mouse model assessed as morphological changes in thymocytes at 20 mg/kg/day, po administered for 2 weeks by H and E staining based analysis; format: organism-based; settings: in vivo, 336 h
Mus musculus [30] = experiment: Antiarthritic activity in chicken type II collagen-induced arthritis DBA/1 mouse model assessed as improvement in arthritic symptoms at 20 mg/kg/day, po administered for 2 weeks by H and E staining based analysis; format: functional, organism-based
Mus musculus [31] = experiment: Antiarthritic activity in chicken type II collagen-induced arthritis DBA/1 mouse model assessed as reduction in fore paw erythema at 20 mg/kg/day, po administered for 2 weeks by H and E staining based analysis; format: functional, organism-based
Mus musculus [32] = experiment: Antiarthritic activity in chicken type II collagen-induced arthritis DBA/1 mouse model assessed as reduction in fore paw swelling at 20 mg/kg/day, po administered for 2 weeks by H and E staining based analysis; format: functional, organism-based
Mus musculus [33] = experiment: Antiarthritic activity in chicken type II collagen-induced arthritis DBA/1 mouse model assessed as reduction in fore paw thickness at 20 mg/kg/day, po administered for 2 weeks by H and E staining based analysis; format: functional, organism-based
Mus musculus [34] = experiment: Antiarthritic activity in chicken type II collagen-induced arthritis DBA/1 mouse model assessed as reduction in hind paw erythema at 20 mg/kg/day, po administered for 2 weeks by H and E staining based analysis; format: functional, organism-based
Mus musculus [35] = experiment: Antiarthritic activity in chicken type II collagen-induced arthritis DBA/1 mouse model assessed as reduction in hind paw swelling at 20 mg/kg/day, po administered for 2 weeks by H and E staining based analysis; format: functional, organism-based
Mus musculus [36] = experiment: Antiarthritic activity in chicken type II collagen-induced arthritis DBA/1 mouse model assessed as reduction in hind paw thickness at 20 mg/kg/day, po administered for 2 weeks by H and E staining based analysis; format: functional, organism-based

Q: Which IC50 [1] does the source give for `CCc1ccc(N(CC(C)C)S(=O)(=O)c2ccc(OCC3CCOCC3)c(CO)c2)cc1` [GSK2981278] here?
A: The IC50 was 2.5 nM.

Q: And the IC50 [2]?
A: The IC50 was 13.6 nM.

Q: And the half-life [3]?
A: Its half-life is 3.81 h.

Q: And the Tmax [4]?
A: Its Tmax is 4.98 min.

Q: What about the Cmax [5] of the same compound?
A: The Cmax was 1280 ng/mL.

Q: What about the AUC(0-t) at 24 h [6] of the same compound?
A: Its AUC(0-t) at 24 h is 1270 ng·h/mL.

Q: And the AUC(0-inf) [7]?
A: The AUC(0-inf) was 1310 ng·h/mL.

Q: And the clearance [8]?
A: The clearance was 64.2 mL/min/kg.

Q: And the half-life [9]?
A: The half-life was 4.99 h.

Q: And the Tmax [10]?
A: Its Tmax is 0.417 h.

Q: And the Cmax [11]?
A: The Cmax was 99.3 ng/mL.

Q: And the AUC(0-t) at 24 h [12]?
A: The AUC(0-t) at 24 h was 299 ng·h/mL.

Q: What about the AUC(0-inf) [13] of the same compound?
A: The AUC(0-inf) was 326 ng·h/mL.

Q: What about the bioavailability [14] of the same compound?
A: The bioavailability was 6.2%.

Q: What about the Activity [15] of the same compound?
A: Its Activity is “Non-Toxic”.

Q: And the Activity (Mus musculus [16])?
A: The Activity was “Active”.

Q: And the Activity (Mus musculus [17])?
A: The Activity was “Active”.

Q: And the Activity (Mus musculus [18])?
A: The Activity was “Active”.

Q: What about the Activity (Mus musculus [19]) of the same compound?
A: Its Activity is “Active”.

Q: What about the Activity (Mus musculus [20]) of the same compound?
A: Its Activity is “Active”.

Q: What about the Activity (Mus musculus [21]) of the same compound?
A: The Activity was “Active”.

Q: And the Activity (Mus musculus [22])?
A: Its Activity is “Active”.

Q: What about the Activity [23] of the same compound?
A: Its Activity is “Non-Toxic”.

Q: What about the Activity [24] of the same compound?
A: The Activity was “Non-Toxic”.

Q: And the Activity (Mus musculus [25])?
A: Its Activity is “Active”.

Q: And the Activity [26]?
A: The Activity was “Toxic”.

Q: What about the Activity [27] of the same compound?
A: Its Activity is “Non-Toxic”.

Q: And the Activity [28]?
A: The Activity was “Non-Toxic”.

Q: And the Activity [29]?
A: Its Activity is “Non-Toxic”.

Q: What about the Activity (Mus musculus [30]) of the same compound?
A: Its Activity is “Active”.

Q: What about the Activity (Mus musculus [31]) of the same compound?
A: The Activity was “Active”.

Q: And the Activity (Mus musculus [32])?
A: The Activity was “Active”.

Q: What about the Activity (Mus musculus [33]) of the same compound?
A: Its Activity is “Active”.

Q: And the Activity (Mus musculus [34])?
A: Its Activity is “Active”.

Q: And the Activity (Mus musculus [35])?
A: Its Activity is “Active”.

Q: What about the Activity (Mus musculus [36]) of the same compound?
A: The Activity was “Active”.
